Data: PubChem BioAssay AID200 (DTP/NCI, 2004)
Values joined by “and” are separate entries in the source; they are usually repeats but may differ in a detail not shown here. Equal entries are not always repeated. Toxic doses and inconclusive results are not listed. The calls were made as follows: active = survival T/C of 150% or more; inactive = T/C below 125% in these data.

System: B6C3F1 mice, B16 melanoma ip, median survival T/C
Assay: NCI In Vivo Anticancer Drug Screen. Data for tumor model B16 Melanoma (intraperitoneal) in B6C3F1 mice
Settings: endpoint: median survival time, schedule: Q01DX009 (ip), higher = longer survival
Method in brief: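 Transplantable tumor in mice; treated vs vehicle control groups; survival or tumor size measured; value = T/C ratio.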

[1] = dose: 25.0 mg/kg/injection, vehicle: saline with Tween-80
[2] = dose: 50.0 mg/kg/injection, vehicle: saline with Tween-80
[3] = dose: 100.0 mg/kg/injection, vehicle: saline with Tween-80
[4] = dose: 200.0 mg/kg/injection, vehicle: saline with Tween-80
[5] = dose: 12.5 mg/kg/injection, vehicle: saline
[6] = dose: 25.0 mg/kg/injection, vehicle: saline
[7] = dose: 50.0 mg/kg/injection, vehicle: saline
[8] = dose: 100.0 mg/kg/injection, vehicle: saline
[9] = dose: 50.0 mg/kg/injection, vehicle: water
[10] = dose: 100.0 mg/kg/injection, vehicle: water
[11] = dose: 200.0 mg/kg/injection, vehicle: water
[12] = dose: 1.25 mg/kg/injection, vehicle: saline with Tween-80
[13] = dose: 12.5 mg/kg/injection, vehicle: water
[14] = dose: 25.0 mg/kg/injection, vehicle: water
[15] = dose: 1.56 mg/kg/injection, vehicle: saline with Tween-80
[16] = dose: 3.12 mg/kg/injection, vehicle: saline with Tween-80
[17] = dose: 6.25 mg/kg/injection, vehicle: saline with Tween-80
[18] = dose: 12.5 mg/kg/injection, vehicle: saline with Tween-80
[19] = dose: 400.0 mg/kg/injection, vehicle: saline with Tween-80
[20] = dose: 0.78 mg/kg/injection, vehicle: saline with Tween-80
[21] = dose: 100.0 mg/kg/injection, vehicle: Klucel (hydroxypropylcellulose) (HPC)
[22] = dose: 200.0 mg/kg/injection, vehicle: Klucel (hydroxypropylcellulose) (HPC)
[23] = dose: 400.0 mg/kg/injection, vehicle: Klucel (hydroxypropylcellulose) (HPC)

Measured: T/C

O=C1c2ccccc2C(Cl)(c2ccc(Cl)cc2)c2ccc(Cl)cc21 (centres undefined)
inactive: [1] 114 % of control | dose: 36.0 mg/kg/injection, vehicle: saline with Tween-80 109 % of control | [2] 116 % of control and 120 % of control | dose: 60.0 mg/kg/injection, vehicle: saline with Tween-80 111 % of control | [3] 115 % of control and 107 % of control | dose: 166.67 mg/kg/injection, vehicle: saline with Tween-80 122 % of control | [4] 117 % of control | dose: 277.78 mg/kg/injection, vehicle: saline with Tween-80 103 % of control

c1cn[nH]c1
inactive: [5] 94 % of control | [6] 118 % of control | [7] 118 % of control | [8] 106 % of control

CS(C)(O)NC(N)=O
inactive: [9] 105 % of control | [10] 103 % of control | [11] 100 % of control | dose: 400.0 mg/kg/injection, vehicle: water 105 % of control

Cc1cccc2c1CC(C(C)C)C2 (centres undefined)
inactive: [2] 105 % of control | [3] 93 % of control

CC(C)([NH-])CO.CC(C)([NH-])CO.[Cl][Cd][Cl]
inactive: dose: 0.31 mg/kg/injection, vehicle: saline with Tween-80 90 % of control | dose: 0.63 mg/kg/injection, vehicle: saline with Tween-80 89 % of control | [12] 87 % of control

O=C(C/C(=N\C(=S)Nc1cc(C(F)(F)F)ccc1Cl)NO)N1CCCC1
inactive: [1] 123 % of control | [2] 116 % of control | [3] 94 % of control

Cc1c(-c2ccc(-c3ccccc3F)cc2)nc2ccc(F)cc2c1C(=O)O
inactive: dose: 6.25 mg/kg/injection, vehicle: water 118 % of control and 102 % of control | [13] 107 % of control | [14] 124 % of control

O=C1C=C(Nc2ccc(O)cc2)c2ccccc2C1=O
inactive: dose: 5.0 mg/kg/injection, vehicle: saline 102 % of control | dose: 10.0 mg/kg/injection, vehicle: saline 98 % of control | dose: 20.0 mg/kg/injection, vehicle: saline 93 % of control

Sc1ccccc1-n1c(-c2ccccc2)ccc1-c1ccccc1
inactive: [2] 104 % of control | [3] 87 % of control

CCCC(C(=O)OCCN1CCCC12CCCCC2)C1CCCC1 (centres undefined)
inactive: [5] 105 % of control | [6] 91 % of control | [7] 91 % of control

C[CH2][Sn]([CH2]C)([CH2]C(=O)OC)[CH2]C(=O)OC
inactive: [15] 95 % of control | [16] 107 % of control | [17] 90 % of control

Cn1ccc(=Nc2ccc(NC(=O)c3ccc(N=c4ccn(C)c5ccc([N+](=O)[O-])cc45)cc3[N+](=O)[O-])cc2)cc1
inactive: [18] 105 % of control | [1] 93 % of control | [2] 91 % of control | [3] 94 % of control | [4] 96 % of control | [19] 96 % of control

BrCC[Se]c1ccccc1
inactive: [16] 113 % of control and 104 % of control | [17] 100 % of control | [18] 119 % of control and 103 % of control | [1] 113 % of control and 100 % of control | [2] 95 % of control and 103 % of control

CC(NC(=O)C1CCCN1C(=O)CN)C(=O)O (centres undefined)
inactive: [8] 105 % of control | dose: 200.0 mg/kg/injection, vehicle: saline 92 % of control | dose: 400.0 mg/kg/injection, vehicle: saline 96 % of control

CC(C)(C)N1CC1CNC(=O)C(=O)NCC1CN1C(C)(C)C (centres undefined)
active: [18] 150 % of control
inactive: [20] 99 % of control | [15] 101 % of control | [16] 109 % of control

O=S1(=O)CCCO1
inactive: [5] 95 % of control | [6] 99 % of control | [7] 94 % of control

CCC(C)C(NC(=O)OC(C)(C)C)C(=O)O (centres undefined)
inactive: [21] 99 % of control | [22] 92 % of control | [23] 87 % of control

COCC(CN1CCN(c2ccccc2OC)CC1)OC (centres undefined)
inactive: [5] 100 % of control | [6] 99 % of control | [7] 105 % of control

O=C(O)C1CC(c2ccccc2)=NN1c1ccccc1 (centres undefined)
inactive: [13] 113 % of control | [14] 120 % of control | [9] 107 % of control | [10] 103 % of control | [11] 110 % of control

CN(C=O)C(C(=O)Nc1cccc2c(OC(=O)C(N(C)C=O)(N(C)C=O)N(C)C=O)c(N=Nc3ccc(S(=O)(=O)Nc4nccs4)cc3)cc(N=Nc3ccc(S(=O)(=O)Nc4nccs4)cc3)c12)(N(C)C=O)N(C)C=O (tested in a mixture with another compound)
inactive: [1] 98 % of control | [2] 112 % of control | [3] 121 % of control | [4] 104 % of control | [19] 105 % of control

CCCCC(NC(=O)C(C)NC(=O)OCc1ccccc1)C(=O)O (centres undefined)
inactive: [21] 101 % of control | [22] 99 % of control | [23] 94 % of control

COc1ccc2c(c1OC(C)=O)-c1cc(O)cc3c1C(C2)N(C(=O)CN(CCCl)CCCl)CC3 (centres undefined)
active: [16] 164 % of control | [17] 153 % of control | [18] 207 % of control

O=C(Nc1nncs1)c1cccs1
inactive: [18] 110 % of control | [1] 105 % of control | [2] 101 % of control | [3] 108 % of control and 106 % of control | [4] 121 % of control and 104 % of control

O=C1CCC(=O)N1CO
inactive: [7] 121 % of control | [8] 117 % of control

O=[N+]([O-])O.O=[N+]([O-])O.[NH-]C1CCCCC1[NH-].[Pt+2] (centres undefined)
inactive: dose: 0.25 mg/kg/injection, vehicle: other 123 % of control
active: dose: 1.0 mg/kg/injection, vehicle: other 163 % of control

COc1cc2cc(c1Cl)N1CC(=O)C(C)(O)C(=O)N(C)C(C)C(=O)OC(CC1=O)C1(C)OC1C(C)C1CC(O)(NC(=O)O1)C(OC)/C=C\C=C(\C)C2OC (centres undefined)
inactive: dose: 4.0 micrograms/kg/injection, vehicle: distilled water + alcohol 109 % of control | dose: 8.0 micrograms/kg/injection, vehicle: distilled water + alcohol 93 % of control | dose: 16.0 micrograms/kg/injection, vehicle: distilled water + alcohol 111 % of control | dose: 32.0 micrograms/kg/injection, vehicle: distilled water + alcohol 95 % of control

C/C=C1\C[C@@H]2C(OC)Nc3cc(O)c(OC)cc3C(=O)N2C1 (some centres undefined)
inactive: dose: 0.03 mg/kg/injection, vehicle: suspension in saline 103 % of control | dose: 0.06 mg/kg/injection, vehicle: suspension in saline 109 % of control | dose: 0.12 mg/kg/injection, vehicle: suspension in saline 106 % of control

CCNC(=O)OCc1c(COC(=O)NCC)c(-c2ccc(Cl)c(Cl)c2)n2c1CCC2
inactive: [20] 95 % of control | [16] 119 % of control | [1] 103 % of control
active: [18] 162 % of control

N#Cc1nc(C#N)c(Sc2ccccc2)c(Sc2ccccc2)c1Sc1ccccc1
inactive: [16] 104 % of control | dose: 3.13 mg/kg/injection, vehicle: saline with Tween-80 101 % of control | [17] 98 % of control and 102 % of control | [18] 93 % of control and 94 % of control | [1] 101 % of control | [2] 97 % of control and 98 % of control | [3] 101 % of control and 104 % of control

CC(=O)NCCSC(=O)C(=O)SCCNC(C)=O
inactive: [2] 88 % of control | [3] 102 % of control | [4] 87 % of control

COC(=O)[C@@H]1c2cc3c(c(O)c2[C@@H](OC)C[C@@]1(C)O)C(=O)c1c(O)cc2c(c1C3=O)OC1O[C@@]2(C)[C@H](O)[C@@H](N(C)C)[C@@H]1O
active: [5] 158 % of control | [6] 159 % of control | [7] 158 % of control

COC1=CC(=O)c2c(O)cc(OC)cc2C1=O
inactive: [12] 105 % of control | dose: 2.5 mg/kg/injection, vehicle: saline with Tween-80 105 % of control | dose: 5.0 mg/kg/injection, vehicle: saline with Tween-80 121 % of control | dose: 10.0 mg/kg/injection, vehicle: saline with Tween-80 109 % of control

CN1C(=O)NC(c2ccc(Cl)cc2)(c2ccc(Cl)cc2)C1=O
inactive: [18] 105 % of control | [1] 100 % of control | [2] 99 % of control | [3] 99 % of control | [4] 103 % of control | [19] 99 % of control
